Assay results taken from article PMC6321136, “Combined In Vitro Studies and in Silico Target Fishing for the Evaluation of the Biological Activities of Diphylleia cymosa and Podophyllum hexandrum” (Molecules, 2018).
Values after ≈ are worked out from the molar mass of the structure shown. Where two headings read alike, the source gives them in different places.

Columns and labels:
[1] = system: Activate, aryl hydrocarbon receptor (AhR); parameters: method as in PubChem Bioassay AID 743122; conditions: ref PubChem Bioassay AID 743122; cited from earlier work
[2] = system: Anticancer, non-Hodgkin lymphoma; parameters: method as in PubChem Bioassay AID 651558; conditions: ref PubChem Bioassay AID 651558; cited from earlier work
[3] = system: Antagonist, retinoic acid receptor (RAR); parameters: method as in PubChem Bioassay AID 1159555; conditions: ref PubChem Bioassay AID 1159555; cited from earlier work
Anti-Inflammatory model [4] = system: Anti-Inflammatory model; parameters: method as in PubChem Bioassay AID 435020; conditions: ref PubChem Bioassay AID 435020; cited from earlier work
[5] = system: Chlamydomonas reinhardtii Algae Gravitaxis; parameters: method as in PubChem Bioassay AID 463189; conditions: ref PubChem Bioassay AID 463189; cited from earlier work
[6] = system: Cytotoxicity, Agonist, AP-1; parameters: method as in PubChem Bioassay AID 1159525; conditions: ref PubChem Bioassay AID 1159525; cited from earlier work
[7] = system: Cytotoxicity, Agonist, hypoxia; parameters: method as in PubChem Bioassay AID 1224844; conditions: ref PubChem Bioassay AID 1224844; cited from earlier work
[8] = system: 1-acylglycerol-3-phosphate O-acyltransferase ABHD5; parameters: method as in PubChem Bioassay AID 493027; conditions: ref PubChem Bioassay AID 493027; cited from earlier work
Agonist, Histone H2A.x = system: Agonist, Histone H2A.x; parameters: method as in PubChem Bioassay AID 1224896; conditions: ref PubChem Bioassay AID 1224896; cited from earlier work
[9] = system: Cytotoxicity, Agonist, antioxidant response element (ARE); parameters: method as in PubChem Bioassay AID 743203; conditions: ref PubChem Bioassay AID 743203; cited from earlier work
[10] = Cytotoxicity in THP-1 cells, SRB method; assay type: cell-based; conditions: human, THP-1 cells (PMA-treated, adherent)
Experimental: The assay was performed following the sulforhodamine B (SRB) method. THP-1 cells (acute human monocytic leukemia cells, ATCC TIB-202) were cultured in a RPMI medium supplemented with 10% fetal bovine serum. A cell suspension was prepared at the density of 1 × 10^6 cells/mL with 2 μL of PMA (phorbol myristyl acetate, Sigma, St. Louis, MO, USA, 30 µg/mL). A portion of 100 μL of this suspension was transferred to the wells of a microplate. The plate was incubated at 37 °C, in a 5% CO2 atmosphere, for about 12 to 16 h to allow cells to adhere. After that, 100 μL of each sample (400, 200, 100, 50 and 25 μg/mL) were added to the wells. The plate was then incubated at 37 °C for 18 h. After incubation, 100 μL of cold trichloroacetic acid (TCA, 10%) solution was added in each well. The plate was incubated at 4 °C for 1 h. The supernatant was discarded and the wells were washed three times with 200 μL of distilled water. Then, the wells were allowed to dry for 24 h. […] The plate was then stirred for 5 min inside the microplate reader. The optical density was measured at 510 nm in a microplate reader. […] Cell viability was calculated according to the formula (A − B/C − B) × 100, where A, B and C corresponds to the absorbance measured for the samples, blank and negative control, respectively. […]

[11] = system: Agonist, thyroid stimulating hormone receptor (TSHR); parameters: method as in PubChem Bioassay AID 1224895; conditions: ref PubChem Bioassay AID 1224895; cited from earlier work
Anti-Inflammatory model [12] = system: Anti-Inflammatory model; parameters: method as in PubChem Bioassay AID 489033; conditions: ref PubChem Bioassay AID 489033; cited from earlier work
[13] = system: Activators, heat shock response; parameters: method as in PubChem Bioassay AID 743210; conditions: ref PubChem Bioassay AID 743210; cited from earlier work
[14] = system: Cytotoxicity, Agonist, constitutive androstane receptor (CAR); parameters: method as in PubChem Bioassay AID 1224836; conditions: ref PubChem Bioassay AID 1224836; cited from earlier work
[15] = β-Carotene/linoleic acid co-oxidation assay
Experimental: The evaluation of the antioxidant activity using the β-carotene/linoleic acid co-oxidation system was performed according to Duarte-Almeida et al., with adaptations. The extracts were solubilized in MeOH (2.2 mg/mL) and further diluted to concentrations ranging from 3.125 to 200 μg/mL. An aliquot of 25 μL of sample solutions were added in the 96-well microplate. 25 mg of linoleic acid and 100 mg Tween 20 (Sigma, St. Louis, MO, USA) were added to a round-bottom flask containing 1 mL of a β-carotene solution (1 mg/mL, Sigma, St. Louis, MO, USA) in chloroform. The latter was removed in a rotatory evaporator and, then, 50 mL of aerated water was added to the flask, affording the β-carotene emulsion. Portions of 250 μL of the freshly prepared emulsion were added to the wells corresponding to the odd columns of a microplate. […] Readings were performed immediately at 470 nm. After the first reading, the microplate was incubated at 45 °C and the kinetic cycle was performed with readings at 15 min intervals for a total of 120 min. The antioxidant activity was expressed as % of inhibition of lipid peroxidation (%I), using the formula (I% = Ac (initial abs − Final abs) − Aam (final abs − Initial abs)/Ac × 100). Assays were performed in triplicate and IC50 values were determined by non-linear regression using GraphPad Prism, version 6.0 (GraphPad Software, San Diego, CA, USA).

COc1cc([C@@H]2c3cc4c(cc3[C@H](O)[C@H]3COC(=O)[C@H]23)OCO4)cc(OC)c1OC [Podophyllotoxin, podophyllotoxin]
Exper. Activity [1]: Active
Exper. Activity [2]: Active
Exper. Activity [3]: Active
Exper. Activity (Anti-Inflammatory model [4]): Active
Exper. Activity [5]: Inactive
Exper. Activity [6]: Inactive
Exper. Activity [7]: Inactive
Exper. Activity [8]: Inactive
Exper. Activity (Agonist, Histone H2A.x): Inactive
Exper. Activity [9]: Inactive
CC50 at 18 h [10]: 400 ± 10.3 µg/mL (≈ 965 µM)
Exper. Activity [11]: Inactive
Exper. Activity (Anti-Inflammatory model [12]): Inactive
Exper. Activity [13]: Inactive
Exper. Activity [14]: Inactive
Antioxidant Activity (IC50-µg/mL) β-Carotene/linoleic Acid [15]: >200 µg/mL
